{"source": "patent US10206902B2", "about": "“Mono- or di-substituted indoles as dengue viral replication inhibitors” (priority 2014, dated 2019)", "key": {"DENV-2 16681 strain": {"tested_on": "DENV-2 16681 strain", "test": "DENV-2 antiviral assay (eGFP-labelled virus in Vero cells)", "assay_type": "cell-based, Dengue virus", "conditions": "Dengue virus, DENV2, Vero, 72 h, DENV-2 16681 eGFP, MOI 0.5, 3 days", "protocol": "The antiviral activity of all the compounds of the invention was tested against DENV-2 16681 strain which was labeled with enhanced green fluorescent protein (eGPF). The culture medium consists of minimal essential medium supplemented with 2% of heat-inactivated fetal calf serum, 0.04% gentamycin (50 mg/mL) and 2 mM of L-glutamine. Vero cells, obtained from ECACC, were suspended in culture medium and 25 μL was added to 384-well plates (2500 cells/well), which already contain the antiviral compounds. Typically, these plates contain a 4-fold serial dilution of 9 dilution steps of the test compound at 200 times the final concentration in 100% DMSO (200 nL). In addition, each compound concentration is tested in quadruplicate (final concentration range: 25 μM-0.00038 μM). Finally, each plate contains wells which are assigned as virus controls (containing cells and virus in the absence of compound), cell controls (containing cells in the absence of virus and compound) and medium controls (containing medium in the absence of cells, virus and compounds). To the wells assigned as medium control, 25 μL of culture medium was added instead of Vero cells. Once the cells were added to the plates, the plates were incubated for 30 minutes at room temperature to allow the cells to distribute evenly within the wells. Next, the plates were incubated in a fully humidified incubator (37° C., 5% CO2) until the next day. Then, DENV-2 strain 16681, labeled with eGFP, was added at a multiplicity of infection (MOI) of 0.5. Therefore, 15 μL of virus suspension was added to all the wells containing test compound and to the wells assigned as virus control. In parallel, 15 μL of culture medium was added to the medium and cell controls. Next, the plates were incubated for 3 days in a fully humidified incubator (37° C., 5% CO2). At the day of the read out, the eGFP fluorescence was measured using an automated fluorescence microscope at 488 nm (blue laser). Using an in-house LIMS system, inhibition dose response curves for each compound were calculated and the half maximal effective concentration (EC50) was determined. Therefore, the percent inhibition (I) for every test concentration is calculated using the following formula: I=100*(ST−SCC)/(SVC−SCC); ST, SCC and SVC are the amount of eGFP signal in the test compound, cell control and virus control wells, respectively. The EC50 represents the concentration of a compound at which the virus replication is inhibited with 50%, as measured by a 50% reduction of the eGFP fluorescent intensity compared to the virus control. The EC50 is calculated using linear interpolation (Table 1)."}, "in vitro": {"test": "in vitro", "assay_type": "cell-based", "conditions": "African green monkey, CC50", "protocol": "In parallel, the toxicity of the compounds was assessed on the same plates. Once the read-out for the eGFP signal was done, 10 μL of resazurin, a cell viability stain, was added to all wells of the 384-well plates. The resazurin assay is based on the reduction of the blue resazurin by NADH, produced by the cells, into the highly fluorescent product, resorufin. The formation of pink fluorescent resorufin is directly related to the number of viable cells in the well. The plates were incubated for an additional 5 hours in a fully humidified incubator (37° C., 5% CO2). Next, the plates were measured on an Infinite reader (Tecan) using an excitation wavelength of 530 nm. The half maximal cytotoxic concentration (CO50) was also determined, defined as the concentration required to reduce the resazurin conversion by 50% compared to that of the cell control wells (Table 1). Finally, the selectivity index (SI) was determined for the compounds, which was calculated as followed: SI=CC50/EC50."}}, "note": "pEC50: −log10 of the molar value.", "data": [{"smiles": "COc1cc(NC(C(=O)c2c[nH]c3c(C)cc(F)cc23)c2ccc(F)cc2OC)cc(OCCO)c1", "note": "(racemic) [Compound 9, 2-(4-fluoro-2-methoxyphenyl)-1-(5-fluoro-7-methyl-1H-indol-3-yl)-2-((3-(2-hydroxyethoxy)-5-methoxyphenyl)amino)ethanone]", "values": [{"measurement": "pEC50", "setting": "DENV-2 16681 strain", "value": 8.03}, {"measurement": "CC50", "setting": "in vitro", "value": 7.5, "unit": "µM"}, {"measurement": "melting point", "value": 179, "unit": "°C"}]}]}
